Measurements as given in US6974870B2, “Substituted 3-amino-thieno [2,3-b]pyridine-2-carboxylic acid amide compounds and processes for preparing and their uses” (Boehringer Ingelheim Phamaceuticals, Inc., priority 2002, dated 2005).

What was measured:
[1] = biological target: T1, human IKKβ (Homo sapiens, UniProt O14920); test: IKKβ kinase inhibition assay (phosphorylation of IκBα substrate, 33P-ATP); format: biochemical; conditions: flag-tagged human IKKβ 0.9 μg/ml, GST-IκBα (1-54) 53 μg/ml, 250 nM ATP, 1 hour at 25° C.
T1 construct: FLAG (N)
T1 sequence (O14920 1-756): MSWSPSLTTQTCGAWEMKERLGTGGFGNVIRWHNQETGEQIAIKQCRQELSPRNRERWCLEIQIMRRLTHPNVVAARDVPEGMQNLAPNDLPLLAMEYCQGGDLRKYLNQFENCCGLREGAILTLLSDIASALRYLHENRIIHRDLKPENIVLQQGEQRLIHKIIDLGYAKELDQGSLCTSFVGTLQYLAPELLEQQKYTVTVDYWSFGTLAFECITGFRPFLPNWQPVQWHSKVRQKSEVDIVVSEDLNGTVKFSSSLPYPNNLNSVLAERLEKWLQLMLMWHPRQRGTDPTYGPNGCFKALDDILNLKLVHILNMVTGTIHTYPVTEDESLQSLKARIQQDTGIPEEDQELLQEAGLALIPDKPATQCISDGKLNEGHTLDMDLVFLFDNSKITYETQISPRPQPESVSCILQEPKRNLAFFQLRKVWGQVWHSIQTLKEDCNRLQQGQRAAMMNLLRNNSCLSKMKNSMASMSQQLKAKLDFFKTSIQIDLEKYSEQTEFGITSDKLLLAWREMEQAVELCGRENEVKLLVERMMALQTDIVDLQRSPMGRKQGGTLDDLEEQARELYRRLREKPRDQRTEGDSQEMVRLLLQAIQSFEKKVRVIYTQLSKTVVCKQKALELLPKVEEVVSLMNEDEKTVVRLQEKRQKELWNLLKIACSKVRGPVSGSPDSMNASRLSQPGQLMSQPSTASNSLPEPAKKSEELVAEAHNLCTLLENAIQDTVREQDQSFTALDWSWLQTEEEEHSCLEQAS
Description: (§1) The inhibition of IKKα and IKKβ by the compounds of the present invention was determined with the following assay that measures the phosphorylation of the IκBα substrate by the respective kinases. The enzymes used in the assay were N-terminally flag-tagged versions of the human IKKβ or IKKα and the substrate was a GST fusion protein with IκBα (amino acids 1-54).
(§2) The reaction mixtures (60 μl) contained 20 mM HEPES pH 7.5, 10 mM MgCl2, 2 mM MnCl2, 100 mM NaCl, 100 μM Na3VO4, 20 mM β-glycerophosphate, 1 mM DTT, 2% DMSO, 250 nM ATP, 0.4 nM [^33P]ATP (specific activity, 3000 Ci/mmol), IκBα substrate, IKK enzyme and test compound. The reaction mixtures contained either 3.6 μg/ml IKKα and 245 μg/ml IκBα or 0.9 μg/ml IKKβ and 53 μg/ml IκBα.
(§3) Reactions were initiated by adding a solution of IκBα substrate and ATP to polypropylene plates containing IKK enzyme that was pre-incubated for 5 minutes with test compound. Then the reaction mixtures were incubated for 1 hour at 25° C., placed on ice and quenched by the addition of 150 μl 10% trichloroacetic acid and 5% disodium pyrophosphate. After mixing, the entire contents of the quenched reaction mixtures were transferred to a pre-wetted Packard UniFilter filtration plate, aspirated and washed 6 times with 250 μl of ddH2O using the Packard Filtermate Harvester. Filtration plates were then air dried, supplemented with 40 μl of Microscint 20 scintillation fluid and the ^33P-labeled reaction products were quantified using the Packard TopCount scintillation counter.
(§4) Compounds were tested in three-fold serial dilutions and inhibitor concentrations to achieve 50% inhibition of enzyme activity (i.e., IC50) were derived from dose-reponse curves using SAS software (SAS Institute, Cary N.C.). A non-linear regression analysis based on the Hill equation was applied to the percent inhibition versus concentration data. In all cases, compound concentrations were verified by HPLC.

[2] = biological target: T2, human IKKα (Homo sapiens, UniProt O15111); test: IKKα kinase inhibition assay (phosphorylation of IκBα substrate, 33P-ATP); format: biochemical; conditions: flag-tagged human IKKα 3.6 μg/ml, GST-IκBα (1-54) 245 μg/ml, 250 nM ATP, 1 hour at 25° C.
T2 construct: FLAG (N)
T2 sequence (O15111 1-745): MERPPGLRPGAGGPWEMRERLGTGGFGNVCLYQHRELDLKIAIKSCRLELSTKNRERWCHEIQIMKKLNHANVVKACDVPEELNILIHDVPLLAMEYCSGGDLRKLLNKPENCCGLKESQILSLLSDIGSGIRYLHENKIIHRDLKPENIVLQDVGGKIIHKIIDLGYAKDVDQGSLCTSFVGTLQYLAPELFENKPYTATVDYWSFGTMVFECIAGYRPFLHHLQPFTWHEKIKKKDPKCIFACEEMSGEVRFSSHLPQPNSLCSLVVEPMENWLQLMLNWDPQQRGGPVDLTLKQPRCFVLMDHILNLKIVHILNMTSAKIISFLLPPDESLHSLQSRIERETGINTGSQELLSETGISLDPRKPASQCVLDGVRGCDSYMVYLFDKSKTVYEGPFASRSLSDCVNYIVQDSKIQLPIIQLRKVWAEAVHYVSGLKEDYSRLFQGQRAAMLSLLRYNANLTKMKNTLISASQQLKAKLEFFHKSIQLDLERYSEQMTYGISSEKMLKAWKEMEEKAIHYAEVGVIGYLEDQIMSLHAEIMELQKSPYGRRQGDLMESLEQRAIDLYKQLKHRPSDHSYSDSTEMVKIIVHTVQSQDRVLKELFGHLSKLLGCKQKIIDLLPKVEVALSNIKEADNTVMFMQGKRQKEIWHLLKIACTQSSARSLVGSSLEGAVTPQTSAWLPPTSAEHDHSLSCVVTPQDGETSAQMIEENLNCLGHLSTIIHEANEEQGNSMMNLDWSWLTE
Description: as §1, §2, §3, §4

| IC50 [1] [µM] | IC50 [2] [µM] | Structure (SMILES) |
| --- | --- | --- |
| < 1 | ≤ 10 | CCCc1cc(N2CCC(NCC(O)c3ccc(-c4nccs4)cc3)CC2)nc2sc(C(N)=O)c(N)c12 (stereo not drawn) [3-Amino-6-{4-[2-hydroxy-2-(4-thiazol-2-yl-phenyl)-ethylamino]-piperidin-1-yl}-4-propyl-thieno[2,3-b]pyridine-2-carboxylic acid amide] |
| < 1 | ≤ 10 | NC(=O)c1sc2nc(N3CCC(N)CC3)cc(/C=C/c3ccncc3)c2c1N [3-Amino-6-(4-amino-piperidin-1-yl)-4-((E)-2-pyridin-4-yl-vinyl)-thieno[2,3-b]pyridine-2-carboxylic acid amide] |
| < 1 | ≤ 10 | NC(=O)c1sc2nc(N3CCC(N)CC3)cc(C(=O)Nc3ccccc3)c2c1N [3-Amino-6-(4-amino-piperidin-1-yl)-thieno[2,3-b]pyridine-2,4-dicarboxylic acid 2-amide 4-phenylamide] |
| < 1 | ≤ 10 | CCCc1cc(N2CCC(NCC(O)c3ccc(-c4nccn4C)cc3)CC2)nc2sc(C(N)=O)c(N)c12 (stereo not drawn) [3-Amino-6-(4-{2-hydroxy-2-[4-(1-methyl-1H-imidazol-2-yl)-phenyl]-ethylamino}-piperidin-1-yl)-4-propyl-thieno[2,3-b] pyridine-2-carboxylic acid amide] |
| < 1 | ≤ 10 | CNC1CCN(c2cc(SC)c3c(N)c(C(N)=O)sc3n2)CC1 [3-Amino-6-(4-methylamino-piperidin-1-yl)-4-methylsulfanyl-thieno[2,3-b]pyridine-2-carboxylic acid amide] |
| < 1 | ≤ 10 | CCCc1cc(N2CCC(NCC(=O)N3CCC(O)CC3)CC2)nc2sc(C(N)=O)c(N)c12 [3-Amino-6-{4-[2-(4-hydroxy-piperidin-1-yl)-2-oxo-ethylamino]-piperidin-1-yl}-4-propyl-thieno[2,3-b] pyridine-2-carboxylic acid amide] |
| < 1 | ≤ 10 | CNC1CCN(c2cc(C(F)(F)F)c3c(N)c(C(N)=O)sc3n2)CC1 [3-Amino-6-(4-methylamino-piperidin-1-yl)-4-trifluoromethyl-thieno[2,3-b]pyridine-2-carboxylic acid amide] |
| < 1 | ≤ 10 | CNC(=O)c1cc(N2CCC(N)CC2)nc2sc(C(N)=O)c(N)c12 [3-Amino-6-(4-amino-piperidin-1-yl)-thieno[2,3-b]pyridine-2,4-dicarboxylic acid 2-amide 4-methylamide] |
| < 1 | ≤ 10 | CCCc1cc(N2CCC(NC3CC3)CC2)nc2sc(C(N)=O)c(N)c12 [3-Amino-6-(4-cyclopropylamino-piperidin-1-yl)-4-propyl-thieno[2,3-b] pyridine-2-carboxylic acid amide] |
| < 1 | ≤ 10 | CCCc1cc(N2CCC(NCC(=O)Nc3cccc4ccccc34)CC2)nc2sc(C(N)=O)c(N)c12 [3-Amino-6-{4-[(naphthalen-1-ylcarbamoylmethyl)-amino]-piperidin-1-yl}-4-propyl-thieno[2,3-b] pyridine-2-carboxylic acid amide] |
| < 1 | ≤ 10 | CCCc1cc(N2CCC(NCC(=O)O)CC2)nc2sc(C(N)=O)c(N)c12 [[1-(3-Amino-2-carbamoyl-4-propyl-thieno[2,3-b]pyridin-6-yl)-piperidin-4-ylamino]-acetic acid] |
| < 1 | ≤ 10 | CCc1cc(N2CCC(N)CC2)nc2sc(C(N)=O)c(N)c12 [3-Amino-6-(4-amino-piperidin-1-yl)-4-ethyl-thieno[2,3-b] pyridine-2-carboxylic acid amide] |
| < 1 | ≤ 10 | NC(=O)c1sc2nc(N3CCC(NCC(O)c4ccc(-c5nccs5)cc4)CC3)cc(C(F)(F)F)c2c1N (stereo not drawn) [3-Amino-6-{4-[2-hydroxy-2-(4-thiazol-2-yl-phenyl)-ethylamino]-piperidin-1-yl}-4-trifluoromethyl-thieno[2,3-b]pyridine-2-carboxylic acid amide] |
| – | ≤ 10 | Cc1cc(/C=C/c2ccccc2)c2c(N)c(C(N)=O)sc2n1 [3-Amino-6-methyl-4-((E)-styryl)-thieno[2,3-b]pyridine-2-carboxylic acid amide] |
| – | ≤ 10 | NC(=O)c1sc2nc(N3CCC(NCC(O)c4ccc(C(=O)NCc5ccccc5)cc4)CC3)cc(C(F)(F)F)c2c1N (stereo not drawn) [3-Amino-6-{4-[2-(4-benzylcarbamoyl-phenyl)-2-hydroxy-ethylamino]-piperidin-1-yl}-4-trifluoromethyl-thieno[2,3-b]pyridine-2-carboxylic acid amide] |
| – | ≤ 10 | NC(=O)c1sc2nc(N3CCC(N)CC3)cc(C(=O)NCCCN3CCOCC3)c2c1N [33-Amino-6-(4-amino-piperidin-1-yl)-thieno[2,3-b]pyridine-2,4-dicarboxylic acid 2-amide 4-[(3-morpholin-4-yl-propyl)-amide]] |
| – | ≤ 10 | Cc1cc(/C=C/c2ccc(F)cc2)c2c(N)c(C(N)=O)sc2n1 [3-Amino-4-[(E)-2-(4-fluoro-phenyl)-vinyl]-6-methyl-thieno[2,3-b]pyridine-2-carboxylic acid amide] |
| – | ≤ 10 | Cc1cc(-c2ccco2)c2c(N)c(C(N)=O)sc2n1 [3-Amino-4-furan-2-yl-6-methyl-thieno[2,3-b]pyridine-2-carboxylic acid amide] |
| – | ≤ 10 | CCCc1cc(N2CC[C@@H](N)C2)nc2sc(C(N)=O)c(N)c12 [3-Amino-6-((R)-3-amino-pyrrolidin-1-yl)-4-propyl-thieno[2,3-b] pyridine-2-carboxylic acid amide] |
| – | ≤ 10 | CCCc1cc(N2CCN(C)CC2)nc2sc(C(N)=O)c(N)c12 [3-Amino-6-(4-methyl-piperazin-1-yl)-4-propyl-thieno[2,3-b] pyridine-2-carboxylic acid amide] |
| – | ≤ 10 | CCCc1cc(N2CCNCC2)nc2sc(C(N)=O)c(N)c12 [3-amino-6-piperazin-1-yl-4-propyl-thieno[2,3-b]pyridine-2-carboxylic acid amide] |
| – | ≤ 10 | NC(=O)c1sc2nc(N3CCC(N)CC3)cc(-c3ccc([N+](=O)[O-])cc3)c2c1N [3-Amino-6-(4-amino-piperidin-1-yl)-4-(4-nitro-phenyl)-thieno[2,3-b]pyridine-2-carboxylic acid amide] |
| – | ≤ 10 | CC(C)Oc1ccnc2sc(C(N)=O)c(N)c12 [3-Amino-4-isopropoxy-thieno[2,3-b]pyridine-2-carboxylic acid amide] |
